Results taken from patent US9102675B2, “3-Cyanoaryl-1H-pyrrolo[2,3-B] pyridine derivatives” (MERCK PATENT GMBH, priority 2011, dated 2015).

Tests used:
[1] = target: T1, IKKε (Homo sapiens, UniProt Q14164); assay: IKKε kinase assay (384-well flashplate assay); type: biochemical; conditions: 10 μM ATP, 1 nM IKKε; read-out: IKKε enzyme assay IC50
T1 sequence (Q14164 1-716): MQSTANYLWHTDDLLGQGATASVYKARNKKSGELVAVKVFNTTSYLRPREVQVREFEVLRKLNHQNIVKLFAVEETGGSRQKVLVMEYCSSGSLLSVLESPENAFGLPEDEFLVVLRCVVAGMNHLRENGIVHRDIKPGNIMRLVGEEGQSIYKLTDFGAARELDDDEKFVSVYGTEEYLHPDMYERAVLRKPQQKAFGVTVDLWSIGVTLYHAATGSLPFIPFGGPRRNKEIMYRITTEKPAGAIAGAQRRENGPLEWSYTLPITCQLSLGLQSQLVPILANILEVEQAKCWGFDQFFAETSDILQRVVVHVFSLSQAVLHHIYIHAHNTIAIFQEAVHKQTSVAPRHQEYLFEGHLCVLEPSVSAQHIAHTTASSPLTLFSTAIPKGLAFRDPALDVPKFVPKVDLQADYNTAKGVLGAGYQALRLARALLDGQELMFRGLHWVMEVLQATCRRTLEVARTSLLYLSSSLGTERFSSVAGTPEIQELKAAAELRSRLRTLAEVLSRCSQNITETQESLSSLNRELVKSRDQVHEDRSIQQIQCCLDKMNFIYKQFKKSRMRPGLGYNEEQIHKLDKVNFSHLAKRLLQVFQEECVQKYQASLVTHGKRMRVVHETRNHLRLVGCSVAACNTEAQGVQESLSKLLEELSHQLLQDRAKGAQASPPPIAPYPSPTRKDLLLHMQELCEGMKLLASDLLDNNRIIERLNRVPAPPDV
Procedure: Test for the Inhibition of IKKε
IKKε—Kinase Assay (IKKepsilon)
(§1) The kinase assay is performed as 384-well flashplate assay (for example for Topcount measurement).
1 nM IKKε, 800 nM biotinylated IκKα(19-42) peptide (Biotin-C6-C6-[…]) and 10 μM ATP (spiked with 0.3 μCi of ^33P-ATP/well) are incubated at 30° C. for 2 hours in a total volume of 50 μl (10 mM MOPS, 10 mM Mg acetate, 0.1 mM EGTA, 1 mM dithiothreitol, 0.02% of Brij35, 0.1% of BSA, 0.1% of BioStab, pH 7.5) with or without test compound. The reaction is stopped using 25 μl of 200 mM EDTA. After 30 min at room temperature, the liquid is removed, and each well is washed three times with 100 μl of 0.9% sodium chloride solution. Non-specific reaction is determined in the presence of 3 μM MSC2119074 (BX-795). The radioactivity is measured using a Topcount (Perkin Elmer). The results (for example IC50 values) are calculated using program tools provided by the IT Department (for example AssayExplorer, Symyx).

[2] = target: T2, TANK binding kinase (TBK1) (Homo sapiens, UniProt Q9UHD2); assay: TBK1 enzyme assay (384-well flashplate kinase assay); type: biochemical; conditions: 10 μM ATP, 0.6 nM TBK1
T2 sequence (Q9UHD2 1-729): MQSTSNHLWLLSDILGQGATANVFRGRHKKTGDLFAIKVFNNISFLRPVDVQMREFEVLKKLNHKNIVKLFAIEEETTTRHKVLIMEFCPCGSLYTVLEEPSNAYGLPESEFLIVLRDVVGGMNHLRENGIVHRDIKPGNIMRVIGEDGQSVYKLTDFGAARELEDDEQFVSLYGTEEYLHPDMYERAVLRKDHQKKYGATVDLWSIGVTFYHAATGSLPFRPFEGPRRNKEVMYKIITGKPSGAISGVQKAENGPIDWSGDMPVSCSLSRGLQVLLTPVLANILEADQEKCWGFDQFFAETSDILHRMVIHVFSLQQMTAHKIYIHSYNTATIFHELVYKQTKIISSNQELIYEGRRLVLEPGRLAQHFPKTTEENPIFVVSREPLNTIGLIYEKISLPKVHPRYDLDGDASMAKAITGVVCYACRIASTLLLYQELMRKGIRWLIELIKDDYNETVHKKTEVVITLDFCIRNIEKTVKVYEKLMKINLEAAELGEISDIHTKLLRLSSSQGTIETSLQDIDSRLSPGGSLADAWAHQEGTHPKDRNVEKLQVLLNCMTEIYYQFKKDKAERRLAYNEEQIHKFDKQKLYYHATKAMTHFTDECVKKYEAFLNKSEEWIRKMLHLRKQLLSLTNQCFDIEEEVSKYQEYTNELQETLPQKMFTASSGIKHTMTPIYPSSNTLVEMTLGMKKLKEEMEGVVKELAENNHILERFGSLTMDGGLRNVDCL
Procedure: Test for the Inhibition of TBK1
as §1
0.6 nM TANK binding kinase (TBK1), 800 nM biotinylated MELK-derived peptide (biotin-Ah-Ah-[…]) and 10 μM ATP (spiked with 0.25 μCi of ^33P-ATP/well) are incubated at 30° C. for 120 min in a total volume of 50 μl (10 mM MOPS, 10 mM Mg acetate, 0.1 mM EGTA, 1 mM DTT, 0.02% of Brij35, 0.1% of BSA, pH 7.5) with or without test compound. The reaction is stopped with 25 μl of 200 mM EDTA. After 30 min at room temperature, the liquid is removed, and each well is washed three times with 100 μl of 0.9% sodium chloride solution. Non-specific reaction is measured in the presence of 100 nM staurosporine. The radioactivity is measured in a Topcount (PerkinElmer). The results (for example IC50 values) are calculated using program tools provided by the IT Department (for example Assay-Explorer, Symyx). Cell Test

In the case of N#Cc1cc(-c2c[nH]c3ncccc23)ccc1OC1CCOCC1 [Compound A1, 5-(1H-pyrrolo[2,3-b]pyridin-3-yl)-2-tetrahydropyran-4-yloxybenzonitrile], the IC50 [1] is reported as less than 300 nM and the IC50 [2] is reported as less than 300 nM.

Compound Cn1cc(-c2cnc3[nH]cc(-c4ccc(OC5CCOCC5)c(C#N)c4)c3c2)cn1 [Compound A4, 5-[5-(1-methylpyrazol-4-yl)-1H-pyrrolo[2,3-b]pyridin-3-yl]-2-tetrahydropyran-4-yloxybenzonitrile] has an IC50 [1] of less than 300 nM and an IC50 [2] of less than 300 nM.

With N#Cc1cc(-c2c[nH]c3ncc(-c4cnn(CCN5CCOCC5)c4)cc23)ccc1OC1CCOCC1 [Compound A7, 5-[5-[1-(2-morpholinoethyl)pyrazol-4-yl]-1H-pyrrolo[2,3-b]pyridin-3-yl]-2-tetrahydropyran-4-yloxybenzonitrile] the IC50 [1] was less than 300 nM and the IC50 [2] was less than 300 nM.

With N#Cc1cc(-c2c[nH]c3ncc(-c4ccc(N5CCOCC5)cc4)cc23)ccc1OC1CCOCC1 [Compound A8, 5-[5-(4-morpholinophenyl)-1H-pyrrolo[2,3-b]pyridin-3-yl]-2-tetrahydropyran-4-yloxybenzonitrile] the IC50 [1] was less than 300 nM and the IC50 [2] was less than 300 nM.

In the case of N#Cc1cc(-c2c[nH]c3ncc(-c4cnn(CCN5CCCC5)c4)cc23)ccc1OC1CCOCC1 [Compound A9, 5-[5-[1-(2-pyrrolidin-1-ylethyl)pyrazol-4-yl]-1H-pyrrolo[2,3-b]pyridin-3-yl]-2-tetrahydropyran-4-yloxybenzonitrile], the IC50 [1] is reported as less than 300 nM and the IC50 [2] is reported as less than 300 nM.

Work on COCCn1cc(-c2cnc3[nH]cc(-c4ccc(OC5CCOCC5)c(C#N)c4)c3c2)cn1 [Compound A10, 5-[5-[1-(2-methoxyethyl)pyrazol-4-yl]-1H-pyrrolo[2,3-b]pyridin-3-yl]-2-tetrahydropyran-4-yloxybenzonitrile] yielded an IC50 [1] of less than 300 nM and an IC50 [2] of less than 300 nM.

Compound N#Cc1cc(-c2c[nH]c3ncc(-c4cnn(C5CCNCC5)c4)cc23)ccc1OC1CCOCC1 [Compound A12, 5-[5-(1-piperidin-4-yl-1H-pyrazol-4-yl)-1H-pyrrolo[2,3-b]pyridin-3-yl]-2-(tetrahydropyran-4-yloxy)benzonitrile] has an IC50 [1] of less than 300 nM and an IC50 [2] of less than 300 nM.

Compound CN1CCC(Oc2ccc(-c3c[nH]c4ncc(-c5cnn(C)c5)cc34)cc2C#N)CC1 [Compound A13, 2-(1-methylpiperidin-4-yloxy)-5-[5-(1-methyl-1H-pyrazol-4-yl)-1H-pyrrolo[2,3-b]pyridin-3-yl]benzonitrile] has an IC50 [1] of less than 300 nM and an IC50 [2] of less than 300 nM.

For N#Cc1cc(-c2c[nH]c3ncc(-c4cnn(CCO)c4)cc23)ccc1OC1CCOCC1 [Compound A15, 5-[5-[1-(2-hydroxyethyl)pyrazol-4-yl]-1H-pyrrolo[2,3-b]pyridin-3-yl]-2-tetrahydropyran-4-yloxybenzonitrile], the IC50 [1] was less than 300 nM and the IC50 [2] was less than 300 nM.

Compound CN1CCC(n2cc(-c3cnc4[nH]cc(-c5ccc(OC6CCOCC6)c(C#N)c5)c4c3)cn2)CC1 [Compound A16, 5-[5-[1-(1-methyl-4-piperidyl)pyrazol-4-yl]-1H-pyrrolo[2,3-b]pyridin-3-yl]-2-tetrahydropyran-4-yloxybenzonitrile] has an IC50 [1] of less than 300 nM and an IC50 [2] of less than 300 nM.

For CN1CCN(c2cnc3[nH]cc(-c4ccc(OC5CCOCC5)c(C#N)c4)c3c2)CC1 [Compound A17, 5-[5-(4-methylpiperazin-1-yl)-1H-pyrrolo[2,3-b]pyridin-3-yl]-2-tetrahydropyran-4-yloxybenzonitrile], the IC50 [1] was 300 to 3000 nM and the IC50 [2] was 300 to 3000 nM.

N#Cc1cc(-c2c[nH]c3ncc(-c4cnn(C5CCNCC5)c4)cc23)cnc1OC1CCOCC1 [Compound A18, 5-[5-[1-(4-piperidyl)pyrazol-4-yl]-1H-pyrrolo[2,3-b]pyridin-3-yl]-2-tetrahydropyran-4-yloxypyridine-3-carbonitrile] showed an IC50 [1] of less than 300 nM and an IC50 [2] of less than 300 nM.

In the case of CN1CCC(n2cc(-c3cnc4[nH]cc(-c5ccc(OC6CCOCC6)c(C#N)c5)c4c3)cn2)CC1 [Compound A20, 5-[5-[1-(1-methyl-4-piperidyl)pyrazol-4-yl]-1H-pyrrolo[2,3-b]pyridin-3-yl]-2-tetrahydropyran-4-yloxybenzonitrile], the IC50 [1] is reported as less than 300 nM and the IC50 [2] is reported as less than 300 nM.

N#Cc1cc(-c2c[nH]c3ncc(OCCN4CCOCC4)cc23)ccc1OC1CCOCC1 [Compound A21, 5-[5-(2-morpholinoethoxy)-1H-pyrrolo[2,3-b]pyridin-3-yl]-2-tetrahydropyran-4-yloxybenzonitrile] showed an IC50 [1] of less than 300 nM and an IC50 [2] of less than 300 nM.

In the case of N#Cc1cc(-c2c[nH]c3ncc(-c4cn(C5CCNCC5)nn4)cc23)ccc1OC1CCOCC1 [Compound A22, 5-[5-[1-(4-piperidyl)triazol-4-yl]-1H-pyrrolo[2,3-b]pyridin-3-yl]-2-tetrahydropyran-4-yloxybenzonitrile], the IC50 [1] is reported as less than 300 nM and the IC50 [2] is reported as less than 300 nM.

CN1CCC(n2cc(-c3cnc4[nH]cc(-c5ccc(OC6CCOCC6)c(C#N)c5)c4c3)nn2)CC1 [Compound A23, 5-[5-[1-(1-methyl-4-piperidyl)triazol-4-yl]-1H-pyrrolo[2,3-b]pyridin-3-yl]-2-tetrahydropyran-4-yloxybenzonitrile] gave an IC50 [1] of less than 300 nM and an IC50 [2] of less than 300 nM.

CC1(COc2ccc(-c3c[nH]c4ncc(-c5cnn(C6CCNCC6)c5)cc34)cc2C#N)COC1 [Compound A24, 2-[(3-Methyloxetan-3-yl)methoxy]-5-[5-[1-(4-piperidyl)pyrazol-4-yl]-1H-pyrrolo[2,3-b]pyridin-3-yl]-benzonitrile] was tested, and the IC50 [1] was less than 300 nM and the IC50 [2] was less than 300 nM.

Compound N#Cc1cc(-c2c[nH]c3ncc(-c4cnn(C5COC5)c4)cc23)ccc1OC1CCOCC1 [Compound A26, 5-[5-[1-(Oxetan-3-yl)pyrazol-4-yl]-1H-pyrrolo[2,3-b]-pyridin-3-yl]-2-tetrahydropyran-4-yloxybenzonitrile] has an IC50 [1] of less than 300 nM and an IC50 [2] of less than 300 nM.

N#Cc1cc(-c2c[nH]c3ncc(-c4cn(CCN5CCCC5)nn4)cc23)ccc1OC1CCOCC1 [Compound A27, 5-[5-[1-(2-Pyrrolidin-1-ylethyl)triazol-4-yl]-1H-pyrrolo-[2,3-b]pyridin-3-yl]-2-tetrahydropyran-4-yloxybenzo-nitrile] gave an IC50 [1] of less than 300 nM and an IC50 [2] of less than 300 nM.

Cn1cc(-c2cnc3[nH]cc(-c4cnc(OC5CCOCC5)c(C#N)c4)c3c2)cn1 [Compound A30, 5-[5-(1-Methylpyrazol-4-yl)-1H-pyrrolo[2,3-b]pyridin-3-yl]-2-tetrahydropyran-4-yloxypyridine-3-carbonitrile] gave an IC50 [1] of less than 300 nM and an IC50 [2] of less than 300 nM.
